The text below walks through data of publication PMC6934184, “Selective DNA-PKcs inhibition extends the therapeutic index of localized radiotherapy and chemotherapy” (The Journal of Clinical Investigation, 2019).

The target in the test is T1, ADRBK1 (GRK2) (Homo sapiens, UniProt P25098).
T1 construct: purchased Thermo Fisher Scientific (Life Technologies) SelectScreen
Description: SelectScreen Z'LYTE. The format is biochemical. In a few lines: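 Percent values come from Thermo SelectScreen profiling of NU5455, combining activity and binding assays. CSF1R was run in Z'LYTE format at Km app ATP, and CAMK1 in Adapta format with ATP listed at 10.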

T1 sequence (P25098 whole entry): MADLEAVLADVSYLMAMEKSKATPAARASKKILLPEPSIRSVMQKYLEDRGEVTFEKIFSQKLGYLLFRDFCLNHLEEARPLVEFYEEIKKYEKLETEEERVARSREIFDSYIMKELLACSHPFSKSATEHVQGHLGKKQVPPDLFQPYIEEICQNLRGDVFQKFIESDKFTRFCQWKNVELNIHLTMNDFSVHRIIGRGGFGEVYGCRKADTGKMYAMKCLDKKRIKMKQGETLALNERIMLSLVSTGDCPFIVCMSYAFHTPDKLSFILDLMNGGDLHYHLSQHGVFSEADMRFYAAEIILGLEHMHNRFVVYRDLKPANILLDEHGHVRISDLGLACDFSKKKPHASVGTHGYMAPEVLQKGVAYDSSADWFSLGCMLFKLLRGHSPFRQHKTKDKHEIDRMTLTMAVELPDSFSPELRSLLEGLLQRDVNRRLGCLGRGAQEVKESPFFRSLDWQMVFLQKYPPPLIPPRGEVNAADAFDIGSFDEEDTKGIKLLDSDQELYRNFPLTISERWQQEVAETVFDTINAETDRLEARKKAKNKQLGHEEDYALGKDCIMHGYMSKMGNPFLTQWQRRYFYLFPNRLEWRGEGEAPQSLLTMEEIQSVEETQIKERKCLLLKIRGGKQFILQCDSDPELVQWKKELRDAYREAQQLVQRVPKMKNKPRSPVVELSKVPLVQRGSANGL

Take `CN(C(=O)CN1CCOCC1)c1ccc2sc3c(-c4cccc5c(=O)cc(N6CC7CCC(C6)O7)oc45)cccc3c2c1` [NU5455]: the inhibition (as a rule, the change of the read-out against control, counted positive when it falls) at 1 µM was -2%.
